# Laboratory results from ChEMBL document CHEMBL4613278, “Pyridine Derivative of the Natural Alkaloid Berberine as Human Telomeric G4-DNA Binder: A Solution and Solid-State Study” (ACS Med Chem Lett, 2020).
# The source made the active and inactive calls. The calls are words filed in the database; no cut-off is given here.
# Legend:
# Assay type in all cases: nucleic-acid assay
# Quadruplex DNA [1] = assay: Binding affinity to human Tel12 G4 quadruplex DNA assessed as decrease in intensity of positive peaks measured after 5 mins by circular dichroism method
# Quadruplex DNA [2] = assay: Binding affinity to human Tel23 G4 quadruplex DNA assessed as decrease in intensity of positive peaks measured after 5 mins by circular dichroism method
# Quadruplex DNA [3] = assay: Binding affinity to human Tel12 G4 quadruplex DNA assessed as decrease in absorption maxima at 338 and 413 nm at 3 uM by spectrophotometric titration analysis
# Quadruplex DNA [4] = assay: Binding affinity to human Tel23 G4 quadruplex DNA assessed as decrease in absorption maxima at 338 and 413 nm at 3 uM by spectrophotometric titration analysis
# Quadruplex DNA [5] = assay: Binding affinity to human Tel12 G4 quadruplex DNA assessed as increase in fluorescence intensity at 1 uM by spectrofluorimetric titration analysis
# Quadruplex DNA [6] = assay: Binding affinity to human Tel23 G4 quadruplex DNA assessed as increase in fluorescence intensity at 1 uM by spectrofluorimetric titration analysis
# Quadruplex DNA [7] = assay: Binding affinity to human Tel12 G4 quadruplex DNA assessed as quadruplex DNA stabilization by measuring increase in melting temperature at compound:quadruplex DNA ratio of 1:1 by thermal melting studies
# Quadruplex DNA [8] = assay: Binding affinity to human Tel23 G4 quadruplex DNA assessed as quadruplex DNA stabilization by measuring increase in melting temperature at compound:quadruplex DNA ratio of 1:1 by thermal melting studies
# Quadruplex DNA [9] = assay: Binding affinity to human Tel12 G4 quadruplex DNA at 298.15 K by isothermal titration calorimetric analysis
# Quadruplex DNA [10] = assay: Binding affinity to human Tel23 G4 quadruplex DNA at 298.15 K by isothermal titration calorimetric analysis
# Quadruplex DNA [11] = assay: Binding affinity to human Tel12 G4 quadruplex DNA assessed as change in enthalpy at 298.15 K by isothermal titration calorimetric analysis
# Quadruplex DNA [12] = assay: Binding affinity to human Tel23 G4 quadruplex DNA assessed as change in enthalpy at 298.15 K by isothermal titration calorimetric analysis
# Quadruplex DNA [13] = assay: Binding affinity to human Tel12 G4 quadruplex DNA assessed as gibbs free energy change at 298.15 K by isothermal titration calorimetric analysis
# Quadruplex DNA [14] = assay: Binding affinity to human Tel23 G4 quadruplex DNA assessed as gibbs free energy change at 298.15 K by isothermal titration calorimetric analysis
# Quadruplex DNA [15] = assay: Binding affinity to human Tel12 G4 quadruplex DNA assessed as change in entropy at 298.15 K by isothermal titration calorimetric analysis
# Quadruplex DNA [16] = assay: Binding affinity to human Tel23 G4 quadruplex DNA assessed as change in entropy at 298.15 K by isothermal titration calorimetric analysis
# Quadruplex DNA [17] = assay: Binding affinity to human Tel12 G4 quadruplex DNA assessed as sharp isosbestic point at 351 and 433 nm at 3 uM by spectrophotometric titration analysis
# Quadruplex DNA [18] = assay: Binding affinity to human Tel23 G4 quadruplex DNA assessed as sharp isosbestic point at 350, 375 and 430 nm at 3 uM by spectrophotometric titration analysis
structure (smiles),measurement,setting,value
COc1ccc2c(CCCc3ccncc3)c3[n+](cc2c1OC)CCc1cc2c(cc1-3)OCO2,Activity,Quadruplex DNA [1],Active
same,Activity,Quadruplex DNA [2],Active
same,Activity,Quadruplex DNA [3],Active
same,Activity,Quadruplex DNA [4],Active
same,Activity,Quadruplex DNA [5],Active
same,Activity,Quadruplex DNA [6],Active
same,deltaTm,Quadruplex DNA [7],15 K
same,deltaTm,Quadruplex DNA [8],2 K
same,K,Quadruplex DNA [9],3.16 ×10⁵ /M
same,K,Quadruplex DNA [10],8.15 ×10⁴ /M
same,deltaH,Quadruplex DNA [11],-7.08 kcal/mol
same,deltaH,Quadruplex DNA [12],-8.53 kcal/mol
same,deltaG,Quadruplex DNA [13],-7.38 kcal/mol
same,deltaG,Quadruplex DNA [14],-6.55 kcal/mol
same,TdeltaS,Quadruplex DNA [15],0.3 kcal/mol
same,TdeltaS,Quadruplex DNA [16],-1.97 kcal/mol
same,Activity,Quadruplex DNA [17],Active
same,Activity,Quadruplex DNA [18],Active
